Laboratory results as given in patent US20230398130A1, “METHODS AND COMPOSITIONS FOR DIFFERENTIATING STEM CELLS” (Massachusetts Institute of Technology, priority 2020, published 2023).

Experiments:
ISC-enriched organoids [1] = assay: Primary screen, 384-well 2.5-D organoid differentiation (ENR+CD, 6 days): carbachol-induced lysozyme secretion (LYZ.S); type: cell-based, murine; conditions: for Dose.FC.LYZ.S / Z.LYZ.S / SSMD.LYZ.S: primary screen; for Dose.FC.LYZ.S: FC vs plate median; for Z.LYZ.S: standard z score; for SSMD.LYZ.S: strictly standardized mean difference
Description: (§1) High-throughput screening.

ISC-enriched organoids [2] = assay: Primary screen, 384-well 2.5-D organoid differentiation (ENR+CD, 6 days): basal lysozyme secretion (LYZ.NS); type: cell-based, murine; conditions: for Dose.FC.LYZ.NS / Z.LYZ.NS / SSMD.LYZ.NS: primary screen; for Dose.FC.LYZ.NS: FC vs plate median; for SSMD.LYZ.NS: strictly standardized mean difference
Description: as §1

ISC-enriched organoids [3] = assay: Primary screen, 384-well 2.5-D organoid differentiation (ENR+CD, 6 days, Target Selective Inhibitor Library, vs whole-plate median): ATP (CellTiter-Glo 3D, CTG); conditions: for Dose.FC.CTG / Z.CTG / SSMD.CTG: primary screen; for Dose.FC.CTG: FC vs plate median; for SSMD.CTG: strictly standardized mean difference
[4] = Dose 10.00 uM, standard z score
[5] = dose 0.08 uM, standard z score of FC
[6] = dose 0.40 uM, standard z score of FC
[7] = dose 2.00 uM, standard z score of FC
[8] = dose 10.00 uM, standard z score of FC
[9] = 1st of the 4 dose lines of the treatment (dose not given)
[10] = 2nd of the 4 dose lines of the treatment (dose not given)
[11] = 3rd of the 4 dose lines of the treatment (dose not given)
[12] = 4th of the 4 dose lines of the treatment (dose not given)
[13] = dose 0.08 uM (1st of 4 lines per treatment; dose not printed in this part)
[14] = dose 0.40 uM (2nd of 4 lines per treatment; dose not printed in this part)
[15] = dose 2.00 uM (3rd of 4 lines per treatment; dose not printed in this part)
[16] = dose 10.00 uM (4th of 4 lines per treatment; dose not printed in this part)

## Fc1cc(F)c2c(c1)[C@H]1C=CC[C@H]1C(c1cccnc1)N2 (mixture of isomers) [Golgicide A]
ISC-enriched organoids [1]; Dose 0.08 uM
  Dose.FC.LYZ.S: 0.146 log 2 fold change
ISC-enriched organoids [1]; Dose 0.40 uM
  Dose.FC.LYZ.S: 0.202 log 2 fold change
ISC-enriched organoids [1]; Dose 2.00 uM
  Dose.FC.LYZ.S: 0.076 log 2 fold change
ISC-enriched organoids [1]; Dose 10.00 uM
  Dose.FC.LYZ.S: −0.256 log 2 fold change
ISC-enriched organoids [2]; Dose 0.08 uM
  Dose.FC.LYZ.NS: 0.267 log 2 fold change
ISC-enriched organoids [2]; Dose 0.08 uM, standard z score
  Z.LYZ.NS: 2.325
ISC-enriched organoids [2]; Dose 0.40 uM
  Dose.FC.LYZ.NS: 0.066 log 2 fold change
ISC-enriched organoids [2]; Dose 0.40 uM, standard z score
  Z.LYZ.NS: 0.576
ISC-enriched organoids [2]; Dose 2.00 uM
  Dose.FC.LYZ.NS: 0.171 log 2 fold change
ISC-enriched organoids [2]; Dose 2.00 uM, standard z score
  Z.LYZ.NS: 1.492
ISC-enriched organoids [2]; Dose 10.00 uM
  Dose.FC.LYZ.NS: −0.161 log 2 fold change
ISC-enriched organoids [2]; [4]
  Z.LYZ.NS: −1.402
ISC-enriched organoids [3]; Dose 0.08 uM
  Dose.FC.CTG: 0.167 log 2 fold change
ISC-enriched organoids [3]; Dose 0.08 uM, standard z score
  Z.CTG: 0.398
ISC-enriched organoids [3]; Dose 0.40 uM
  Dose.FC.CTG: 0.227 log 2 fold change
ISC-enriched organoids [3]; Dose 0.40 uM, standard z score
  Z.CTG: 0.541
ISC-enriched organoids [3]; Dose 2.00 uM
  Dose.FC.CTG: 0.339 log 2 fold change
ISC-enriched organoids [3]; Dose 2.00 uM, standard z score
  Z.CTG: 0.810
ISC-enriched organoids [3]; Dose 10.00 uM
  Dose.FC.CTG: −0.220 log 2 fold change
ISC-enriched organoids [3]; [4]
  Z.CTG: −0.526

## CNC(=O)[C@H](Cc1ccccc1)NC(=O)[C@H](CC(C)C)[C@H](CSc1cccs1)C(=O)NO [Batimastat (BB-94)]
ISC-enriched organoids [1]; dose 0.08 uM, ENR+CD 6 days
  Dose.FC.LYZ.S: 0.053 log 2 fold change
ISC-enriched organoids [1]; dose 0.40 uM, ENR+CD 6 days
  Dose.FC.LYZ.S: 0.028 log 2 fold change
ISC-enriched organoids [1]; dose 2.00 uM, ENR+CD 6 days
  Dose.FC.LYZ.S: 0.056 log 2 fold change
ISC-enriched organoids [1]; dose 10.00 uM, ENR+CD 6 days
  Dose.FC.LYZ.S: −0.107 log 2 fold change
ISC-enriched organoids [2]; dose 0.08 uM, ENR+CD 6 days
  Dose.FC.LYZ.NS: −0.003 log 2 fold change
ISC-enriched organoids [2]; [5]
  Z.LYZ.NS: −0.025
ISC-enriched organoids [2]; dose 0.40 uM, ENR+CD 6 days
  Dose.FC.LYZ.NS: 0.005 log 2 fold change
ISC-enriched organoids [2]; [6]
  Z.LYZ.NS: 0.042
ISC-enriched organoids [2]; dose 2.00 uM, ENR+CD 6 days
  Dose.FC.LYZ.NS: 0.081 log 2 fold change
ISC-enriched organoids [2]; [7]
  Z.LYZ.NS: 0.707
ISC-enriched organoids [2]; dose 10.00 uM, ENR+CD 6 days
  Dose.FC.LYZ.NS: −0.075 log 2 fold change
ISC-enriched organoids [2]; [8]
  Z.LYZ.NS: −0.649
ISC-enriched organoids [3]; dose 0.08 uM, ENR+CD 6 days
  Dose.FC.CTG: 0.035 log 2 fold change
ISC-enriched organoids [3]; [5]
  Z.CTG: 0.084
ISC-enriched organoids [3]; dose 0.40 uM, ENR+CD 6 days
  Dose.FC.CTG: −0.095 log 2 fold change
ISC-enriched organoids [3]; [6]
  Z.CTG: −0.226
ISC-enriched organoids [3]; dose 2.00 uM, ENR+CD 6 days
  Dose.FC.CTG: −0.049 log 2 fold change
ISC-enriched organoids [3]; [7]
  Z.CTG: −0.117
ISC-enriched organoids [3]; dose 10.00 uM, ENR+CD 6 days
  Dose.FC.CTG: −0.283 log 2 fold change
ISC-enriched organoids [3]; [8]
  Z.CTG: −0.676

## COc1cc(-c2ncn(/C=C\C(=O)OC(C)C)n2)cc(C(F)(F)F)c1 [KPT-185]
ISC-enriched organoids [1]; Dose 0.08 uM
  Dose.FC.LYZ.S: −0.015 log 2 fold change
ISC-enriched organoids [1]; Dose 0.40 uM
  Dose.FC.LYZ.S: 0.220 log 2 fold change
ISC-enriched organoids [1]; Dose 2.00 uM
  Dose.FC.LYZ.S: −0.322 log 2 fold change
ISC-enriched organoids [1]; Dose 10.00 uM
  Dose.FC.LYZ.S: −0.153 log 2 fold change
ISC-enriched organoids [1]; [9]
  Z.LYZ.S: −0.096
  SSMD.LYZ.S: −0.092
ISC-enriched organoids [1]; [10]
  Z.LYZ.S: 1.420
  SSMD.LYZ.S: 0.978
ISC-enriched organoids [1]; [11]
  Z.LYZ.S: −2.085
  SSMD.LYZ.S: −1.455
ISC-enriched organoids [1]; [12]
  Z.LYZ.S: −0.989
  SSMD.LYZ.S: −0.431
ISC-enriched organoids [2]; Dose 0.08 uM
  Dose.FC.LYZ.NS: −0.006 log 2 fold change
ISC-enriched organoids [2]; Dose 0.08 uM, standard z score
  Z.LYZ.NS: −0.049
ISC-enriched organoids [2]; Dose 0.40 uM
  Dose.FC.LYZ.NS: 0.097 log 2 fold change
ISC-enriched organoids [2]; Dose 0.40 uM, standard z score
  Z.LYZ.NS: 0.846
ISC-enriched organoids [2]; Dose 2.00 uM
  Dose.FC.LYZ.NS: −0.209 log 2 fold change
ISC-enriched organoids [2]; Dose 2.00 uM, standard z score
  Z.LYZ.NS: −1.820
ISC-enriched organoids [2]; Dose 10.00 uM
  Dose.FC.LYZ.NS: −0.085 log 2 fold change
ISC-enriched organoids [2]; [4]
  Z.LYZ.NS: −0.744
ISC-enriched organoids [2]; [9]
  SSMD.LYZ.NS: −0.049
ISC-enriched organoids [2]; [10]
  SSMD.LYZ.NS: 0.872
ISC-enriched organoids [2]; [11]
  SSMD.LYZ.NS: −1.718
ISC-enriched organoids [2]; [12]
  SSMD.LYZ.NS: −0.298
ISC-enriched organoids [3]; Dose 0.08 uM
  Dose.FC.CTG: 0.116 log 2 fold change
ISC-enriched organoids [3]; Dose 0.08 uM, standard z score
  Z.CTG: 0.277
ISC-enriched organoids [3]; Dose 0.40 uM
  Dose.FC.CTG: 0.104 log 2 fold change
ISC-enriched organoids [3]; Dose 0.40 uM, standard z score
  Z.CTG: 0.248
ISC-enriched organoids [3]; Dose 2.00 uM
  Dose.FC.CTG: −0.995 log 2 fold change
ISC-enriched organoids [3]; Dose 2.00 uM, standard z score
  Z.CTG: −2.377
ISC-enriched organoids [3]; Dose 10.00 uM
  Dose.FC.CTG: −0.855 log 2 fold change
ISC-enriched organoids [3]; [4]
  Z.CTG: −2.041
ISC-enriched organoids [3]; [9]
  SSMD.CTG: 0.296
ISC-enriched organoids [3]; [10]
  SSMD.CTG: 0.270
ISC-enriched organoids [3]; [11]
  SSMD.CTG: −1.033
ISC-enriched organoids [3]; [12]
  SSMD.CTG: −0.723

## C=CCNC1=C2C[C@@H](C)C[C@H](OC)[C@H](O)[C@@H](C)/C=C(\C)[C@H](OC(N)=O)[C@@H](OC)/C=C\C=C(/C)C(=O)NC(=CC1=O)C2=O [17-AAG (Tanespimycin)]
ISC-enriched organoids [1]; [13]
  SSMD.LYZ.S_Rep (strictly standardized mean difference): −1.387
  Z.LYZ.S (standard z score): −1.826
ISC-enriched organoids [1]; [14]
  SSMD.LYZ.S_Rep (strictly standardized mean difference): −1.428
  Z.LYZ.S (standard z score): −2.199
ISC-enriched organoids [1]; [15]
  SSMD.LYZ.S_Rep (strictly standardized mean difference): −1.462
  Z.LYZ.S (standard z score): −2.219
ISC-enriched organoids [1]; [16]
  SSMD.LYZ.S_Rep (strictly standardized mean difference): −1.655
  Z.LYZ.S (standard z score): −1.975
ISC-enriched organoids [1]; dose 0.08 uM, ENR+CD 6 days
  Dose.FC.LYZ.S: −0.282 log 2 fold change
ISC-enriched organoids [1]; dose 0.40 uM, ENR+CD 6 days
  Dose.FC.LYZ.S: −0.340 log 2 fold change
ISC-enriched organoids [1]; dose 2.00 uM, ENR+CD 6 days
  Dose.FC.LYZ.S: −0.343 log 2 fold change
ISC-enriched organoids [1]; dose 10.00 uM, ENR+CD 6 days
  Dose.FC.LYZ.S: −0.306 log 2 fold change
ISC-enriched organoids [2]; [13]
  SSMD.LYZ.NS_Rep (strictly standardized mean difference): −1.180
ISC-enriched organoids [2]; [14]
  SSMD.LYZ.NS_Rep (strictly standardized mean difference): −1.186
ISC-enriched organoids [2]; [15]
  SSMD.LYZ.NS_Rep (strictly standardized mean difference): −1.053
ISC-enriched organoids [2]; [16]
  SSMD.LYZ.NS_Rep (strictly standardized mean difference): −1.183
ISC-enriched organoids [2]; dose 0.08 uM, ENR+CD 6 days
  Dose.FC.LYZ.NS: −0.193 log 2 fold change
ISC-enriched organoids [2]; [5]
  Z.LYZ.NS: −1.682
ISC-enriched organoids [2]; dose 0.40 uM, ENR+CD 6 days
  Dose.FC.LYZ.NS: −0.205 log 2 fold change
ISC-enriched organoids [2]; [6]
  Z.LYZ.NS: −1.786
ISC-enriched organoids [2]; dose 2.00 uM, ENR+CD 6 days
  Dose.FC.LYZ.NS: −0.142 log 2 fold change
ISC-enriched organoids [2]; [7]
  Z.LYZ.NS: −1.239
ISC-enriched organoids [2]; dose 10.00 uM, ENR+CD 6 days
  Dose.FC.LYZ.NS: −0.187 log 2 fold change
ISC-enriched organoids [2]; [8]
  Z.LYZ.NS: −1.631
ISC-enriched organoids [3]; [13]
  SSMD.CTG_Rep (strictly standardized mean difference): −0.926
ISC-enriched organoids [3]; [14]
  SSMD.CTG_Rep (strictly standardized mean difference): −1.023
ISC-enriched organoids [3]; [15]
  SSMD.CTG_Rep (strictly standardized mean difference): −1.783
ISC-enriched organoids [3]; [16]
  SSMD.CTG_Rep (strictly standardized mean difference): −1.348
ISC-enriched organoids [3]; dose 0.08 uM, ENR+CD 6 days
  Dose.FC.CTG: −1.012 log 2 fold change
ISC-enriched organoids [3]; [5]
  Z.CTG: −2.418
ISC-enriched organoids [3]; dose 0.40 uM, ENR+CD 6 days
  Dose.FC.CTG: −1.262 log 2 fold change
ISC-enriched organoids [3]; [6]
  Z.CTG: −3.015
ISC-enriched organoids [3]; dose 2.00 uM, ENR+CD 6 days
  Dose.FC.CTG: −1.459 log 2 fold change
ISC-enriched organoids [3]; [7]
  Z.CTG: −3.486
ISC-enriched organoids [3]; dose 10.00 uM, ENR+CD 6 days
  Dose.FC.CTG: −1.446 log 2 fold change
ISC-enriched organoids [3]; [8]
  Z.CTG: −3.454
